Source: the NIST ThermoML archive (doi:10.1016/j.jct.2009.03.009)

What was measured:
[1] = xn = mol fraction of the nth substance listed; conditions: 313.15 K, 101 kPa, Liquid; for speed of sound: Sing-around technique in a fixed-path interferometer; for mass density: Vibrating tube method
[2] = refractive index (Na D-line) (dimensionless); xn = mol fraction of the nth substance listed; conditions: 313.15 K, 101 kPa, Liquid, Standard Abbe refractometry

CCCCCCCC [octane] + Cc1ccccc1
Conditions | mass density, [1] [kg/m3] | refractive index, [2] | speed of sound, [1] [m/s]
x1 = 0.0542 | 834.6 | 1.47708 | 1226.2
x1 = 0.1022 | 823.4 | 1.46982 | 1214.8
x1 = 0.2014 | 802 | 1.45667 | 1194.1
x1 = 0.3037 | 782 | 1.44463 | 1176.2
x1 = 0.3965 | 765.5 | 1.43362 | 1162.3
x1 = 0.4983 | 749.1 | 1.42473 | 1149.7
x1 = 0.5986 | 734.3 | 1.41567 | 1139.1
x1 = 0.7016 | 720.5 | 1.4075 | 1130
x1 = 0.8007 | 708.4 | 1.40046 | 1122.5
x1 = 0.902 | 696.6 | 1.39376 | 1116.1
x1 = 0.9493 | 691.6 | 1.39079 | 1113.1
x1 = 1 | 686.3 | 1.38769 | 1110.6

CCCCCCCC [octane] + c1ccccc1
Conditions | mass density, [1] [kg/m3] | refractive index, [2] | speed of sound, [1] [m/s]
x1 = 0.0541 | 839.6 | 1.4762 | 1210.5
x1 = 0.1014 | 825.5 | 1.46817 | 1196.3
x1 = 0.202 | 799.3 | 1.45259 | 1172.2
x1 = 0.3022 | 777.2 | 1.4384 | 1154.3
x1 = 0.404 | 758.4 | 1.42757 | 1140.9
x1 = 0.5023 | 742.2 | 1.41799 | 1131
x1 = 0.6011 | 728.3 | 1.41072 | 1123.7
x1 = 0.7087 | 714.9 | 1.4035 | 1118
x1 = 0.8051 | 704.4 | 1.3977 | 1114.4
x1 = 0.9015 | 695 | 1.39253 | 1112.1
x1 = 0.9514 | 690.5 | 1.39004 | 1111.2
x1 = 1 | 686.3 | 1.38769 | 1110.6
